Molecular target: JAK1 (Homo sapiens (Human), UniProt P23458)
Assay: Analysis of JAK1 activity inhibitory capacity (ADP-Glo Kinase assay)
Format: biochemical
Conditions: JAK1 enzyme, ATP 250 uM, IRS-1tide substrate, 30° C. 40 minutes, luminescence
Protocol: Experimental Example 1: Analysis of JAK1 activity inhibitory capacity (ADP-Glo™ Kinase assay)
An inhibitory effect of the inventive compound on JAK was identified as follows.
A control material and a test material were prepared through dilution at each concentration by using DMSO. At the same time, ATP (250 uM) and JAK's substrate (JAK1, IRS-1tide 40 ng/mL) were prepared through dilution in kinase buffer (40 mM Tris-HCl pH 7.5, 20 mM MgCl2, 0.5 mg/mL BSA, 50 uM DTT).
A test drug for each concentration, the substrate, the ATP and JAK enzymes were mixed in an eppendorf tube, and then subjected to reaction in an incubator at 30° C. for 40 minutes.
ADP-Glo ? reagent included in ADP-Glo™ Kinase Enzyme System (Promega, USA, V9571) was added to each eppendorf tube, and then subjected to reaction in the incubator at 30° C. for 40 minutes.
A kinase detection reagent included in the ADP-Glo™ Kinase Enzyme System was inserted into the eppendorf tube, after which luminescence was measured by using Wallac Victor 2TM with an integration time set to 1 second, such that an inhibitory capacity of the test material on JAKs phosphorylation was analyzed. A concentration of the compound, at which JAK enzyme activity inhibition occurs 50% compared to the control group, was determined as IC50 (nM) of an inhibitor.

Sequence of JAK1 (P23458 whole entry): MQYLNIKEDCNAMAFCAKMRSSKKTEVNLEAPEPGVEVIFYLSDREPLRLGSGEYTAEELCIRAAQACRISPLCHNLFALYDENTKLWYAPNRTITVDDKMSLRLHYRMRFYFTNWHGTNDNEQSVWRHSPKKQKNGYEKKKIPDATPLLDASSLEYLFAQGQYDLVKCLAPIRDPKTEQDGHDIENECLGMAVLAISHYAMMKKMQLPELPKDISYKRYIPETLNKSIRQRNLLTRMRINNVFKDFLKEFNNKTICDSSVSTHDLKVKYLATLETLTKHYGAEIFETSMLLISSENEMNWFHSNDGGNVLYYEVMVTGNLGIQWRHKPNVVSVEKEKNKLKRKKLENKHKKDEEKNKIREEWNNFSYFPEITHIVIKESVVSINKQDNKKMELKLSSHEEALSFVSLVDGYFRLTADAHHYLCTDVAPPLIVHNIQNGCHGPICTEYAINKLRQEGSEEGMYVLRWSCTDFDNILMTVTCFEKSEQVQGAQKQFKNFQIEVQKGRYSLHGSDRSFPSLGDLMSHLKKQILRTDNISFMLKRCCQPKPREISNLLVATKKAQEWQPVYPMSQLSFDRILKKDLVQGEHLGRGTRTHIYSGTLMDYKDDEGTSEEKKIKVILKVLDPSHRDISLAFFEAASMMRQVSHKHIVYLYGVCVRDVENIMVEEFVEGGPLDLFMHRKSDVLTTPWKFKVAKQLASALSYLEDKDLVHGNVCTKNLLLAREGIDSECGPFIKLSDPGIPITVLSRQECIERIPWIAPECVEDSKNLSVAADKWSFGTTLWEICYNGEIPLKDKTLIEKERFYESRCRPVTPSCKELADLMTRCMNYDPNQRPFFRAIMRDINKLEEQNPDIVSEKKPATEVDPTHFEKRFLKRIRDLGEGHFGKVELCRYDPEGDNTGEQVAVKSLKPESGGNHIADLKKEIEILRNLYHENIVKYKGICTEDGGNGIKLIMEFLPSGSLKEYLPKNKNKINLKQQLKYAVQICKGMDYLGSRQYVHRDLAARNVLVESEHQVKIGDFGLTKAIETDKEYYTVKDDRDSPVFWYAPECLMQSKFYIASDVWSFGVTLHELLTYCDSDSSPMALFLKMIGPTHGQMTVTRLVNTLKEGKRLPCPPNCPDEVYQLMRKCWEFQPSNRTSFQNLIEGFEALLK

| Structure (SMILES) | IC50 |
| --- | --- |
| Cn1c(C(=O)Nc2cccc3c2ccn3-c2ccnc(NC(=O)C3CC3)c2)cc2ccccc21 [Example 49, N-(1-(2-(cyclopropanecarboxamido)pyridin-4-yl)-1H-indol-4-yl)-1-methyl-1H-indole-2-carboxamide] | > 1000 nM |
| CC(C)=C(C#N)C(=O)Nc1cccc2c(-c3ccnc(NC(=O)C4CC4)c3)cn(C)c12 [Example 26, N-(4-(7-(2-cyano-3-methylbut-2-enamido)-1-methyl-1H-indol-3-yl)pyridin-2-yl)cyclopropanecarboxamide] | > 1000 nM |
| COc1cc(-c2c[nH]c3c(NC(=O)CC#N)cccc23)cc(NC(=O)C2CC2)n1 [Example 20, N-(4-(7-(2-cyanoacetamido)-1H-indol-3-yl)-6-methoxypyridin-2-yl)cyclopropanecarboxamide] | > 1000 nM |
| CC(C)=C(C#N)C(=O)Nc1cccc2c(-c3cc(C)nc(NC(=O)C4CC4)c3)c[nH]c12 [Example 9, N-(4-(7-(2-cyano-3-methylbut-2-enamido)-1H-indol-3-yl)-6-methylpyridin-2-yl)cyclopropanecarboxamide] | > 1000 nM |
| O=C(Nc1cccc2c1ccn2-c1ccnc(NC(=O)C2CC2)c1)c1cc(F)cc(F)c1 [Example 44, N-(1-(2-(cyclopropanecarboxamido)pyridin-4-yl)-1H-indol-4-yl)-3,5-difluorobenzamide] | > 1000 nM |
| N#C/C(=C\c1ccccc1)C(=O)Nc1cccc2c1ccn2-c1ccnc(NC(=O)C2CC2)c1 [Example 48, N-(4-(4-(2-cyano-3-phenylacrylamido)-1H-indol-1-yl)pyridin-2-yl)cyclopropanecarboxamide] | > 1000 nM |
| O=C(Nc1ccc(F)cc1F)Nc1cccc2c1ccn2-c1ccnc(NC(=O)C2CC2)c1 [Example 61, N-(4-(4-(3-(2,4-difluorophenyl)ureido)-1H-indol-1-yl)pyridin-2-yl)cyclopropanecarboxamide] | > 1000 nM |
| N#C/C(=C/c1cccs1)C(=O)Nc1cccc2c1ccn2-c1ccnc(NC(=O)C2CC2)c1 [Example 46, N-(4-(4-(2-cyano-3-(thiophen-2-yl)acrylamido)-1H-indol-1-yl)pyridin-2-yl)cyclopropanecarboxamide] | > 1000 nM |
| O=C(Nc1cccc2c1ccn2-c1ccnc(NC(=O)C2CC2)c1)c1cc[nH]n1 [Example 55, N-(1-(2-(cyclopropanecarboxamido)pyridin-4-yl)-1H-indol-4-yl)-1H-pyrazole-3-carboxamide] | > 1000 nM |
| N#CC1(C(=O)Nc2cccc3c2ccn3-c2ccnc(NC(=O)C3CC3)c2)CCOCC1 [Example 50, 4-cyano-N-(1-(2-(cyclopropanecarboxamido)pyridin-4-yl)-1H-indol-4-yl)tetrahydro-2H-pyran-4-carboxamide] | > 1000 nM |
| N#Cc1ccc(C(=O)Nc2cccc3c2ccn3-c2ccnc(NC(=O)C3CC3)c2)cc1 [Example 47, 4-cyano-N-(1-(2-(cyclopropanecarboxamido)pyridin-4-yl)-1H-indol-4-yl)benzamide] | > 1000 nM |
| Cn1cccc(C(=O)Nc2cccc3c2ccn3-c2ccnc(NC(=O)C3CC3)c2)c1=O [Example 45, N-(1-(2-(cyclopropanecarboxamido)pyridin-4-yl)-1H-indol-4-yl)-1-methyl-2-oxo-1,2-dihydropyridine-3-carboxamide] | > 1000 nM |
| CC(C)=C(C)C(=O)Nc1cccc2c(-c3ccnc(NC(=O)C4CC4)c3)c[nH]c12 [Example 17, N-(4-(7-(2,3-dimethylbut-2-enamido)-1H-indol-3-yl)pyridin-2-yl)cyclopropanecarboxamide] | 100 to 1000 nM |
| Cc1ncc(C(=O)Nc2cccc3c2ccn3-c2ccnc(NC(=O)C3CC3)c2)s1 [Example 43, N-(1-(2-(cyclopropanecarboxamido)pyridin-4-yl)-1H-indol-4-yl)-2-methylthiazole-5-carboxamide] | > 1000 nM |
| CC(C)=C(C)C(=O)Nc1cccc2c1ccn2-c1ccnc(NC(=O)C2CC2)c1 [Example 60, N-(4-(4-(2,3-dimethylbut-2-enamido)-1H-indol-1-yl)pyridin-2-yl)cyclopropanecarboxamide] | > 1000 nM |
| O=C(Nc1cccc2c(-c3ccnc(NC(=O)C4CC4)c3)c[nH]c12)c1ccc(C(F)(F)F)nc1 [Example 29, N-(3-(2-(cyclopropanecarboxamido)pyridin-4-yl)-1H-indol-7-yl)-6-(trifluoromethyl) nicotinamide] | 100 to 1000 nM |
| N#CC1(C(=O)Nc2cccc3c(-c4ccnc(NC(=O)C5CC5)c4)c[nH]c23)CCOCC1 [Example 11, 4-cyano-N-(3-(2-(cyclopropanecarboxamido)pyridin-4-yl)-1H-indol-7-yl)tetrahydro-2H-pyran-4-carboxamide] | 100 to 1000 nM |

Second part, the molecule after the results:

| IC50 | Structure (SMILES) |
| --- | --- |
| < 100 nM | Cc1cc(C)cc(C(=O)Nc2cccc3c(-c4ccnc(NC(=O)C5CC5)c4)c[nH]c23)c1 [Example 5, N-(3-(2-(cyclopropanecarboxamido)pyridin-4-yl)-1H-indol-7-yl)-3,5-dimethylbenzamid] |
| 100 to 1000 nM | N#C/C(=C\c1ccccc1)C(=O)Nc1cccc2c(-c3ccnc(NC(=O)C4CC4)c3)c[nH]c12 [Example 22, (E)-N-(4-(7-(2-cyano-3-phenylacrylamido)-1H-indol-3-yl)pyridin-2-yl)cyclopropanecarboxamide] |
| 100 to 1000 nM | COc1ccc(C(=O)Nc2cccc3c2ccn3-c2ccnc(NC(=O)C3CC3)c2)cc1F [Example 56, N-(1-(2-(cyclopropanecarboxamido)pyridin-4-yl)-1H-indol-4-yl)-3-fluoro-4-methoxybenzamide] |
| 100 to 1000 nM | CC(C)=C(C#N)C(=O)Nc1cccc2c1ccn2-c1ccnc(NC(=O)C2CC2)c1 [Example 40, N-(4-(4-(2-cyano-3-methylbut-2-enamido)-1H-indol-1-yl)pyridin-2-yl)cyclopropanecarboxamide] |
| 100 to 1000 nM | O=C(Nc1cccc2c(-c3ccnc(NC(=O)C4CC4)c3)c[nH]c12)c1ccc(Cl)nc1 [Example 32, 6-chloro-N-(3-(2-(cyclopropanecarboxamido)pyridin-4-yl)-1H-indol-7-yl)nicotinamide] |
| 100 to 1000 nM | CC(C(=O)Nc1cccc2c(-c3ccnc(NC(=O)C4CC4)c3)c[nH]c12)N1CCN(C)CC1 (stereo not shown) [Example 18, N-(4-(7-(2-(4-methylpiperazin-1-yl)propanamido)-1H-indol-3-yl)pyridin-2-yl)cyclopropanecarboxamide] |
| 100 to 1000 nM | Cc1cnc(NC(=O)C2CC2)cc1-c1c[nH]c2c(NC(=O)CC#N)cccc12 [Example 8, N-(4-(7-(2-cyanoacetamido)-1H-indol-3-yl)-5-methylpyridin-2-yl)cyclopropanecarboxamide] |
| < 100 nM | N#CCC(=O)Nc1cccc2c(-c3ccnc(NC(=O)C4CC4)c3)c[nH]c12 [Example 10, N-(4-(7-(2-cyanoacetamido)-1H-indol-3-yl)pyridin-2-yl)cyclopropanecarboxamide] |
| 100 to 1000 nM | N#C/C(=C\c1cccs1)C(=O)Nc1cccc2c(-c3ccnc(NC(=O)C4CC4)c3)c[nH]c12 [Example 25, (E)-N-(4-(7-(2-cyano-3-(thiophen-2-yl)acrylamido)-1H-indol-3-yl)pyridin-2-yl)cyclopropanecarboxamide] |
| 100 to 1000 nM | O=C(Nc1cccc2c(-c3ccnc(NC(=O)C4CC4)c3)c[nH]c12)c1cc[nH]n1 [Example 33, N-(3-(2-(cyclopropanecarboxamido)pyridin-4-yl)-1H-indol-7-yl)-1H-pyrazole-3-carboxamide] |
| < 100 nM | Cc1ccncc1C(=O)Nc1cccc2c(-c3ccnc(NC(=O)C4CC4)c3)c[nH]c12 [Example 24, N-(3-(2-(cyclopropanecarboxamido)pyridin-4-yl)-1H-indol-7-yl)-4-methylnicotinamide] |
| < 100 nM | Cc1ccc(C(=O)Nc2cccc3c(-c4ccnc(NC(=O)C5CC5)c4)c[nH]c23)cn1 [Example 28, N-(3-(2-(cyclopropanecarboxamido)pyridin-4-yl)-1H-indol-7-yl)-6-methylnicotinamide] |
| < 100 nM | O=C(NCC(F)(F)F)Nc1cccc2c1ccn2-c1ccnc(NC(=O)C2CC2)c1 [Example 62, N-(4-(4-(3-(2,2,2-trifluoroethyl)ureido)-1H-indol-1-yl)pyridin-2-yl)cyclopropanecarboxamide] |
| 100 to 1000 nM | Cn1cccc(C(=O)Nc2cccc3c(-c4ccnc(NC(=O)C5CC5)c4)c[nH]c23)c1=O [Example 34, N-(3-(2-(cyclopropanecarboxamido)pyridin-4-yl)-1H-indol-7-yl)-1-methyl-2-oxo-1,2-dihydropyridine-3-carboxamide] |
| < 100 nM | CC(C#N)C(=O)Nc1cccc2c(-c3ccnc(NC(=O)C4CC4)c3)c[nH]c12 (stereo not shown) [Example 14, N-(4-(7-(2-cyanopropanamido)-1H-indol-3-yl)pyridin-2-yl)cyclopropanecarboxamide] |
| < 100 nM | CCCC(=O)Nc1cccc2c(-c3ccnc(NC(=O)C4CC4)c3)c[nH]c12 [Example 7, N-(4-(7-butyramido-1H-indol-3-yl)pyridin-2-yl)cyclopropanecarboxamide] |
| < 100 nM | O=C(Nc1cccc2c(-c3ccnc(NC(=O)C4CC4)c3)c[nH]c12)c1cncs1 [Example 6, N-(3-(2-(cyclopropanecarboxamido)pyridin-4-yl)-1H-indol-7-yl)thiazole-5-carboxamide] |
